# How the values were obtained:
# [1] = system: MDA-MB-231; assay: Antiproliferative activity against lung metastasis variant of human MDA-MB-231 cells assessed as cell growth inhibition; format: functional, cell-based
# [2] = system: MCF7; assay: Antiproliferative activity against human MCF7 cells assessed as cell growth inhibition; format: functional, cell-based
# [3] = system: HCC1419; assay: Antiproliferative activity against human HCC1419 cells assessed as cell growth inhibition; format: functional, cell-based
# [4] = Antiproliferative activity against human MCF-10A cells assessed as cell growth inhibition; format: toxicity, cell-based
# [5] = system: MDA-MB-231; assay: Antiproliferative activity against human MDA-MB-231 cells assessed as cell growth inhibition; format: functional, cell-based
# [6] = system: MDA-MB-231; assay: Antiproliferative activity against human MDA-MB-231 cells assessed as cell viability by WST-1 assay; format: functional, cell-based
# [7] = system: NCI-H23; assay: Antiproliferative activity against human NCI-H23 cells assessed as cell viability by WST-1 assay; format: functional, cell-based
# [8] = system: MG-63; assay: Antiproliferative activity against human MG-63 cells assessed as cell viability by WST-1 assay; format: functional, cell-based
# [9] = system: A549; assay: Antiproliferative activity against human A549 cells assessed as cell viability by WST-1 assay; format: functional, cell-based
# [10] = system: MV4-11; assay: Antiproliferative activity against human MV4-11 cells assessed as cell viability by WST-1 assay; format: functional, cell-based
# [11] = system: MDA-MB-468; assay: Antiproliferative activity against human MDA-MB-468 cells assessed as cell viability by WST-1 assay; format: functional, cell-based
# [12] = system: AGS; assay: Antiproliferative activity against human AGS cells assessed as cell growth inhibition measured upto 72 hrs by MTT assay; format: functional, cell-based
# [13] = system: KYSE-30; assay: Antiproliferative activity against human KYSE-30 cells assessed as cell growth inhibition measured upto 72 hrs by MTT assay; format: functional, cell-based; conditions: KYSE-30, 72 h
# [14] = system: HUVEC; assay: Anti-angiogenesis activity in HUVEC cells; format: functional, cell-based; conditions: Homo sapiens
# [15] = system: MCF7; assay: Antiproliferative activity against human MCF7 cells assessed as cell growth inhibition measured after 72 hrs; format: functional, cell-based; conditions: MCF7, 72 h
# [16] = system: PC-3; assay: Antiproliferative activity against human PC-3 cells assessed as cell growth inhibition measured after 72 hrs; format: functional, cell-based; conditions: PC-3, 72 h
# [17] = system: A-431; assay: Antiproliferative activity against human A-431 cells assessed as cell growth inhibition measured after 72 hrs; format: functional, cell-based; conditions: A-431, 72 h
# [18] = Antiproliferative activity against human OVK18 cells assessed as cell growth inhibition measured after 72 hrs; format: functional, cell-based; conditions: OVK18, 72 h
# [19] = Antiproliferative activity against human PK-1 cells assessed as cell growth inhibition measured after 72 hrs; format: functional, cell-based; conditions: PK-1, 72 h
# [20] = system: HCT-116; assay: Antiproliferative activity against human HCT-116 cells assessed as cell growth inhibition measured after 72 hrs; format: functional, cell-based; conditions: HCT-116, 72 h
# [21] = system: ACHN; assay: Antiproliferative activity against human ACHN cells assessed as cell growth inhibition measured after 72 hrs; format: functional, cell-based
# [22] = system: Huh-7; assay: Antiproliferative activity against human Huh-7 cells assessed as cell growth inhibition measured after 72 hrs; format: functional, cell-based; conditions: Huh-7, 72 h
# [23] = system: G-361; assay: Antiproliferative activity against human G-361 cells assessed as cell growth inhibition measured after 72 hrs; format: functional, cell-based; conditions: G-361, 72 h
# [24] = system: DLD-1; assay: Antiproliferative activity against human DLD-1 cells assessed as cell growth inhibition measured after 72 hrs; format: functional, cell-based; conditions: DLD-1, 72 h
# [25] = system: 8505C; assay: Antiproliferative activity against human 8505C cells assessed as cell growth inhibition measured after 72 hrs; format: functional, cell-based
# [26] = system: A549; assay: Antiproliferative activity against human A549 cells assessed as cell growth inhibition measured after 72 hrs; format: functional, cell-based; conditions: A549, 72 h
# [27] = system: GCIY; assay: Antiproliferative activity against human GCIY cells assessed as cell growth inhibition measured after 72 hrs; format: functional, cell-based
# [28] = Antiproliferative activity against human SH-10-TC cells assessed as cell growth inhibition measured after 72 hrs; format: functional, cell-based
# [29] = system: HuCCT-1; assay: Antiproliferative activity against human HuCCT-1 cells assessed as cell growth inhibition measured after 72 hrs; format: functional, cell-based; conditions: HuCCT-1, 72 h
# [30] = system: Ca-Ski; assay: Antiproliferative activity against human Ca-Ski cells assessed as cell growth inhibition measured after 72 hrs by MTT assay; format: functional, cell-based
# [31] = system: HeLa; assay: Antiproliferative activity against human HeLa cells assessed as cell growth inhibition measured after 72 hrs by MTT assay; format: functional, cell-based; conditions: Homo sapiens, HeLa, 72 h
# [32] = Cytotoxicity activity against mouse SVR cells assessed as cell growth inhibition at 4 ug/ml relative to control; format: toxicity, cell-based; conditions: at 4 µg/mL
# [33] = Cytotoxicity activity against mouse SVR cells assessed as cell growth inhibition at 6 ug/ml relative to control; format: toxicity, cell-based; conditions: at 6 µg/mL
smiles,measurement,setting,value
CCN(CC)CCOc1ccc(C(=O)N2C/C(=C\c3ccccc3)C(=O)/C(=C/c3ccccc3)C2)cc1,IC50,[1],530 nM
same,IC50,[2],1640 nM
same,IC50,[3],1460 nM
same,IC50,[4],41000 nM
same,IC50,[5],720 nM
O=C1/C(=C/c2ccccc2Br)CNC/C1=C\c1ccccc1Br,IC50,[6],390 nM
same,IC50,[7],390 nM
same,IC50,[8],390 nM
same,IC50,[9],390 nM
same,IC50,[10],390 nM
same,IC50,[11],390 nM
C#CCOc1ccc(/C=C2\CCC/C(=C\c3ccc(OCC#C)cc3)C2=O)cc1,IC50,[12],720 nM
same,IC50,[13],3400 nM
COCOc1cc(/C=C/C(=O)CC(SCC(=O)OC)c2cc(OCOC)cc(OCOC)c2)cc(OCOC)c1 (stereo not given),IC50,[14],400 nM
COc1cc(/C=C/C(=O)/C=C/c2cc(OC)c(OC)c(OC)c2)cc(OC)c1O,IC50,[15],1000 nM
same,IC50,[16],1000 nM
same,IC50,[17],1000 nM
same,IC50,[18],1000 nM
same,IC50,[19],1000 nM
same,IC50,[20],1000 nM
same,IC50,[21],1000 nM
same,IC50,[22],1000 nM
same,IC50,[23],1000 nM
same,IC50,[24],1000 nM
same,IC50,[25],1000 nM
same,IC50,[26],1000 nM
same,IC50,[27],1000 nM
same,IC50,[14],400 nM
same,IC50,[28],1000 nM
same,IC50,[29],1000 nM
COc1cc(/C=C2\CN(C)C/C(=C\c3cc(OC)c(OC)c(OC)c3)C2=O)cc(OC)c1OC,IC50,[6],390 nM
same,IC50,[7],390 nM
same,IC50,[8],390 nM
same,IC50,[9],390 nM
same,IC50,[10],390 nM
same,IC50,[11],390 nM
O=C(/C=C/c1cccc(F)c1)/C=C/c1cccc(F)c1,EC50,[30],1030 nM
same,EC50,[31],1030 nM
O=C(/C=C/c1ccccc1)/C=C/c1ccccc1,inhibition at 4 ug/ml,[32],87.1%
same,inhibition at 6 ug/ml,[33],90.4%

# — ChEMBL document CHEMBL5244235, “Diarylpentanoids with antitumor activity: A critical review of structure-activity relationship studies” (Eur J Med Chem, 2020)
